These results are taken from patent publication US4847271A, “Antihypercholesterolemic β-lactones” (Merck & Co., Inc., priority 1987, dated 1989).

Read-outs that look alike come from different tables or passages of the source.

In the assay the target is T1, HMG-CoA synthase (Rattus norvegicus, UniProt P17425).
T1 construct: The livers from male Charles River CD rats (225-350 g) were homogenized in 0.25 M sucrose; from tissue; host or cells: rat liver (male Charles River CD rats), 100,000×g supernatant, ammonium sulfate precipitate, DEAE-52 fraction
T1 sequence (P17425 1-520): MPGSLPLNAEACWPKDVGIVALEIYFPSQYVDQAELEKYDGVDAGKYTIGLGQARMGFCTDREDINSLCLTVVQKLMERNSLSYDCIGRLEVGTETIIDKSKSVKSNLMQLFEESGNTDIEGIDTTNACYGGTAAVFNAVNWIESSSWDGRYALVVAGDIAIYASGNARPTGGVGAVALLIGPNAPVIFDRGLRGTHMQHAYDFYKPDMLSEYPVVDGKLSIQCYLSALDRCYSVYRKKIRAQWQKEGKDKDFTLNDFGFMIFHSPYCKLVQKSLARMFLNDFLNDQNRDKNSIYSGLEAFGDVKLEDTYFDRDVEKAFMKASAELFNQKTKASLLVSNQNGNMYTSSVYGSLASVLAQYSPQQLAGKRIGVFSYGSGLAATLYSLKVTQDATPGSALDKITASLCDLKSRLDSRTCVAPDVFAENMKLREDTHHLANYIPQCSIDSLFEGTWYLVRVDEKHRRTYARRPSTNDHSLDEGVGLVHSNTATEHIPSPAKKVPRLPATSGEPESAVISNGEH
The experiment in a line: HMG-CoA synthase inhibition assay (in vitro, enzyme partially purified from rat liver). It counts as biochemical. How it is done:
The intrinsic HMG-CoA synthase inhibition activity of the compounds of this invention is measured by the standard in vitro protocol described below:
The livers from male Charles River CD rats (225-350 g) were homogenized in 0.25 M sucrose which was adjusted with phenylmethylsulfonylfluoride (PMSF) and N-p-tosyl-1-lysine chloromethyl ketone (TLCK) so that the final concentration of each was 50 and 25 μg/ml, respectively. The homogenate was centrifuged at 15,000×g for 20 minutes, the supernatant filtered through a fine nylon screen to remove most of the fat layer and recentrifuged at 100,000×g for 1 hour. This supernatant was removed and 1 M potassium phosphate, dithiothreitol (DTT) and ethylene glycolbis(β-aminoethyl ether)-N,N,N',N'-tetraacetic acid (EGTA) added to give a final concentration of 0.1 M (pH 7.2), 0.5 mM and 0.1 mM, respectively. Solid ammonium sulfate was added to 50% saturation to the protein solution, it was centrifuged at 15,000×g and the […]. This precipitated protein could be stored at -70° for at least one month with very little loss of activity. The ammonium sulfate rrecipitate was dissolved in an minimal amount of 0.06 M potassium phosphate buffer (pH 7.2) containing 0.5 mM dithiothreitol and 0.1 mM EGTA (referred to as 0.06 M phosphate buffer) and dialyzed overnight against 2 liters of the same buffer to remove the ammonium sulfate and to inactivate HMG-CoA lyase [Clinkenbeard, et al., J. Biol. Chem 250, 3108-3116(1975)].
The dialyzed extract was added to a column of DEAE-52 (Whatman) which had been equilibrated with 0.06 M phosphate buffer (10 mg of protein to 1 ml bed volume of the resin). The DEAE-cellulose was eluted with 0.06 M Phosphate buffer until the optical density at 280 nm was essentially zero. This fraction contained the β-ketoacetyl-CoA thiolase activity. The HMG-CoA synthase was eluted from the column with 0.1 M phosphate buffer (pH 7.2) containing 0.5 mM DTT and 0.1 mM EGTA, and was virtually free of all thiolase activity. The protein was precipitated by the addition of ammonium sulfate to give 50% saturation. This solution was stirred for 10 minutes at 4° C. and the precipitate collected by centrifugation at 15,000 rpm for 10 minutes. The supernatant was discarded and the precipitate dissolved in a minimum of 0.06 M phosphate buffer, pH 7.2 (about 10 ml) and the enzyme stored at -80° C.
HMG-CoA Synthase Inhibition Assay
Enzyme protein (ca. 24 μg) was added to a solution containing 117 mM Tris-HCl (pH 8.0), 11.7 mM MgCl2, 1.17 mM Ethylenediaminetetraacetic acid (EDTA), 0.58 mM dithiothreitol, and the indicated concentrations of the test compound (added as a 2 μg/ml solution in dimethylsulfoxide). The incubation took place in a volume of 0.085 ml at 30° in a shaking water bath. After 5 minutes, 15 μl of a solution containing acetoacetyl-CoA and 0.1 μCi of 1-[^14 C]-acetyl-CoA was added to give a final concentrations of 0.1 and 0.4 mM, respectively. The incubation was continued for 10 more minutes and the reaction stopped by the addition of 50 μl of the assay mixture to 0.2 ml of 6N HCl in a glass scintillation vial. The vial was heated for 1 hour at 120° after which time 0.2 ml more of 6N HCl was again added to each vial and the heating continued for another hour. Following this, 1.0 ml of 0.9% saline was added to each vial and finally 10 ml of scintillation liquid. Radioactivity was determined in a Packard Tri-Carb liquid scintillation counter. Percent inhibition is calculated by the formula: [formula] IC50 values were determined by plotting the log of the concentration of the test compound verses the percentage inhibition and fitting a straight line to the resulting data by using the least squares method.

Setting [1] is: HMG-CoA synthase activity, 5 min preincubation, 30°, read-out: IC50.

Consider `CC(=CC(=O)Sc1ccccn1)C=C(C)CC(C)CCCCC1OC(=O)C1CO` (stereo not drawn) [2-pyridyl 11-(3-hydroxymethyl-4-oxo-2-oxetano)-3,5,7-trimethyl-2,4-undecadienthioate], for which the IC50 under setting [1] is 120 nM.
`CC(=CC(N)=O)C=C(C)CC(C)CCCCC1OC(=O)C1CO` (stereo not drawn) [Example 8, 11-(3-hydroxymethyl-4-oxo-2-oxetano)-3,5,7-trimethyl-2,4-undecadienamide]: the IC50 under setting [1] is < 100 nM.
With `CCOCC1C(=O)OC1CCCCC(C)CC(C)=CC(C)=CC(=O)OC` (stereo not drawn) [Example 12, methyl 11-(3-ethoxymethyl-4-oxo-2-oxetano)-3,5,7-trimethvl-2.4-undecadienoate], the IC50 under setting [1] stood at 700 nM.
Still for that read-out and setting: to `COCC1C(=O)OC1CCCCC(C)CC(C)=CC(C)=CC(=O)O` (stereo not drawn) [Example 14, 11-(3-methoxymethyl-4-oxo-2-oxetano)-3,5,7-trimethyl-2,4-undecadienoic acid] belongs 110 nM.
With `CC(=CC(=O)NCCO)C=C(C)CC(C)CCCCC1OC(=O)C1CO` (stereo not drawn) [Example 10, N--(2-hydroxyethyl)-11-(3-hydroxymethyl-4-oxo-2-oxetano)-3,5,7-trimethyl-2,4-undecadienamide], the IC50 under setting [1] was < 100 nM.
The compound “methyl 11-(3-urethanylmethyl)-4-oxo-2-oxetano)-3,5,7-trimethyl-2,4-undecadienoate” registered a percent inhibition (at 40 μg/ml) of 80.6%.
Turning to `COCC1C(=O)OC1CCCCC(C)CC(C)=CC(C)=CC(=O)OC` (stereo not drawn) [Example 11, methyl 11-(3-methoxymethyl-4-oxo-2-oxetano)-3,5,7-trimethyl-2,4-undecadienoate], the IC50 under setting [1] came out at 270 nM.
For orientation: inhibition means the percentage by which the read-out fell short of the control. As for `CCC(C)C(=O)OCC1C(=O)OC1CCCCC(C)CC(C)=CC(C)=CC(=O)OC` (stereo not drawn) [Example 18, methyl 11-[3-(2-methylbutyryloxymethyl)-4-oxo-2-oxetano]-3,5,7-trimethyl-2,4-undecadienoate], for the setting “at 10^-5 M (IC25), read-out: percent inhibition”, the inhibition at 10 µM is 25.4%.
As for `CC(=CC(=O)OC(C)(C)C)C=C(C)CC(C)CCCCC1OC(=O)C1CO` (stereo not drawn) [Example 20, tert-butyl 11-(3-hydroxymethyl-4-oxo-2-oxetano)-3,5,7-trimethyl-2,4-undecadienoate], the IC50 under setting [1] is 500 nM.
Take `CCCCCCNC(=O)C=C(C)C=C(C)CC(C)CCCCC1OC(=O)C1CO` (stereo not drawn) [Example 7, N-n-hexyl 11-(3-hydroxymethyl-4-oxo-2-oxetano)-3,5,7-trimethyl-2,4-undecadienamide]: the IC50 under setting [1] stood at 200 nM.
On the same count and under the same terms, for `COC(=O)C=C(C)C=C(C)CC(C)CCCCC1OC(=O)C1COC(=O)CCC(=O)O` (stereo not drawn) [methyl 11-[3-(3-carboxypropionyloxymethyl)-4-oxo-2-oxetano]-3,5,7-trimethyl-2,4-undecadienoate] the value was 2400 nM; for `COC(=O)C=C(C)C=C(C)CC(C)CCCCC1OC(=O)C1COC=O` (stereo not drawn) [Example 17, methyl 11-(3-formyloxymethyl-4-oxo-2-oxetano)-3,5,7-trimethyl-2,4-undecadienoate], 140 nM; for `COC(=O)C=C(C)C=C(C)CC(C)CCCCC1OC(=O)C1COS(C)(=O)=O` (stereo not drawn) [Example 16, methyl 11-(3-methanesulfonyloxymethyl-4-oxo-2-oxetano)-3,5,7-trimethyl-2,4-undecadienoate], 240 nM.
For “methyl 11-[3-(N-methylurethanylmethyl)-4-oxo-2-oxetano]-3,5,7-trimethyl-2,4-undecadienoate [Example 19]”, the percent inhibition (at 4.0 μg/ml) was found to be 86.2%.
With `COCC1C(=O)OC1CCCCC(C)CC(C)=CC(C)=CC(=O)OC(c1ccccc1)c1ccccc1` (stereo not drawn) [Example 14 Step B, Diphenylmethyl 11-(3-methoxymethyl-4-oxo-2-oxetano)-3,5,7-trimethyl-2,4-undecadienoate], under “printed as (40 μg/ml) without footnote, read-out: IC50 (value printed in brackets as a concentration) (converted)”, the IC50 is 79300 nM.
As to `COc1ccc(C(OCC2C(=O)OC2CCCCC(C)CC(C)=CC(C)=CC(=O)O)(c2ccccc2)c2ccccc2)cc1` (stereo not drawn) [Example 15, 11-(3-anisyldiphenylmethyloxymethyl-4-oxo-2-oxetano)-3,5,7-trimethyl-2,4-undecadienoic acid], the IC50 under setting [1] came out at 10000 nM.
`C=CCOCC1C(=O)OC1CCCCC(C)CC(C)=CC(C)=CC(=O)OC` (stereo not drawn) [Example 13, methyl 11-[3-(2-propenyloxymethyl)-4-oxo-2-oxetano]-3,5,7-trimethyl-2,4-undecadienoate]: under setting [1], the IC50 came to 1000 nM.
Turning to `CC(=CC(=O)Nc1ccc(Br)cc1)C=C(C)CC(C)CCCCC1OC(=O)C1CO` (stereo not drawn) [Example 9, N--(4-bromophenyl)-11-(3-hydroxymethyl-4-oxo-2-oxetano)-3,5,7-trimethyl-2,4-undecadienamide], the IC50 under setting [1] was found to be 100 nM.
